Measured values taken from ChEMBL document CHEMBL5620348, “3-Hydroxy-pyridin-4(1H)-ones as siderophores mediated delivery of isobavachalcone enhances antibacterial activity against pathogenic Pseudomonas aeruginosa” (Eur J Med Chem, 2023).
The source made the active and inactive calls. No cut-off for these calls is given here.

Columns and labels:
[1] = tested on: Vero; experiment: Cytotoxicity against green monkey Vero cells assessed as reduction in cell viability at 128 ug/ml incubated for 24 hrs by MTT assay; format: toxicity, cell-based; settings: chlorocebus sabaeus, dose 128 µg/ml
[2] = tested on: Pseudomonas aeruginosa; experiment: Antibacterial activity against Pseudomonas aeruginosa PAO1 infected in Caenorhabditis elegans assessed as increase in worm survival rate at 2 times MIC incubated for 60 hrs relative to control; format: functional
[3] = tested on: Pseudomonas aeruginosa; experiment: Antibacterial activity against multi-drug resistant Pseudomonas aeruginosa clinical isolate FB assessed as inhibition of bacterial growth by measuring minimum inhibitory concentration incubated for 18 to 20 hrs in presence of M9 medium by broth microdilution assay; format: functional; settings: time 18-20 hrs
[4] = tested on: Pseudomonas aeruginosa; experiment: Antibacterial activity against Pseudomonas aeruginosa PAO1 assessed as inhibition of bacterial growth at 2 times MIC incubated upto 24 hrs in presence of Fe(III) by time-kill based microplate reader assay; format: functional, organism-based
[5] = tested on: Pseudomonas aeruginosa; experiment: Antibacterial activity against multi-drug resistant Pseudomonas aeruginosa clinical isolate 1167 assessed as inhibition of bacterial growth by measuring minimum inhibitory concentration incubated for 18 to 20 hrs in presence of M9 medium by broth microdilution assay; format: functional; settings: time 18-20 hrs
[6] = tested on: Pseudomonas aeruginosa; experiment: Antibacterial activity against Pseudomonas aeruginosa PAO1 assessed as inhibition of bacterial growth incubated for 18 to 20 hrs in presence of M9 and FeCl3 medium by broth microdilution assay; format: functional, organism-based
[7] = tested on: Pseudomonas aeruginosa; experiment: Antibacterial activity against multi-drug resistant Pseudomonas aeruginosa clinical isolate 1121 assessed as inhibition of bacterial growth by measuring minimum inhibitory concentration incubated for 18 to 20 hrs in presence of M9 medium by broth microdilution assay; format: functional; settings: time 18-20 hrs
[8] = tested on: Pseudomonas aeruginosa; experiment: Antibacterial activity against Pseudomonas aeruginosa PAO1 assessed as reduction in metabolic activity incubated for 6 hrs by resazurin reagent based microplate reader analysis; format: functional, organism-based
[9] = tested on: Pseudomonas aeruginosa; experiment: Antibacterial activity against Pseudomonas aeruginosa ATCC27853 assessed as inhibition of bacterial growth by measuring minimum inhibitory concentration incubated for 18 to 20 hrs in presence of M9 medium by broth microdilution assay; format: functional; settings: time 18-20 hrs
[10] = tested on: Cell membrane; experiment: Disruption of cell membrane integrity in Pseudomonas aeruginosa PAO1 assessed as increase in nucleic acid leakage at 0.5 to 4 MIC incubated for 6 hrs by microplate reader analysis; format: cell membranes
[11] = tested on: Pseudomonas aeruginosa; experiment: Antibacterial activity against Pseudomonas aeruginosa PAO1 assessed as inhibition of bacterial growth by measuring minimum inhibitory concentration incubated for 18 to 20 hrs in presence of M9 and FeCl3 medium by broth microdilution assay; format: functional; settings: time 18-20 hrs
[12] = tested on: Pseudomonas aeruginosa; experiment: Antibacterial activity against Pseudomonas aeruginosa PAO1 assessed as inhibition of bacterial growth at 1 to 4 times MIC incubated upto 24 hrs by time-kill based microplate reader assay; format: functional, organism-based
[13] = tested on: Escherichia coli; experiment: Antibacterial activity against Escherichia coli ATCC 25922 assessed as inhibition of bacterial growth by measuring minimum inhibitory concentration incubated for 18 to 20 hrs in presence of M9 medium by broth microdilution assay; format: functional; settings: time 18-20 hrs
[14] = tested on: Vero; experiment: Cytotoxicity against green monkey Vero cells assessed as reduction in cell viability at > 32 ug/ml incubated for 24 hrs by MTT assay; format: toxicity, cell-based; settings: chlorocebus sabaeus, dose > 32 µg/ml
[15] = tested on: Staphylococcus aureus; experiment: Bactericidal activity against Staphylococcus aureus ATCC 25923 assessed as inhibition of bacterial growth at 1 to 2 times MIC incubated upto 24 hrs by time-kill based microplate reader assay; format: functional, organism-based
[16] = tested on: Pseudomonas aeruginosa; experiment: Antibacterial activity against multi-drug resistant Pseudomonas aeruginosa clinical isolate 1129 assessed as inhibition of bacterial growth by measuring minimum inhibitory concentration incubated for 18 to 20 hrs in presence of M9 medium by broth microdilution assay; format: functional; settings: time 18-20 hrs
[17] = tested on: Klebsiella pneumoniae; experiment: Antibacterial activity against Klebsiella pneumoniae ATCC 700603 assessed as inhibition of bacterial growth by measuring minimum inhibitory concentration incubated for 18 to 20 hrs in presence of M9 medium by broth microdilution assay; format: functional; settings: time 18-20 hrs
[18] = tested on: Pseudomonas aeruginosa; experiment: Antibacterial activity against Pseudomonas aeruginosa PAO1 assessed as inhibition of bacterial growth incubated for 18 to 20 hrs in presence of MH medium by broth microdilution assay; format: functional, organism-based
[19] = tested on: Pseudomonas aeruginosa; experiment: Antibacterial activity against Pseudomonas aeruginosa PAO1 assessed as inhibition of bacterial growth by measuring minimum inhibitory concentration incubated for 18 to 20 hrs in presence of M9 medium by broth microdilution assay; format: functional; settings: time 18-20 hrs
[20] = tested on: Cell membrane; experiment: Disruption of cell membrane integrity in Pseudomonas aeruginosa PAO1 assessed as increase in red fluorescence incubated for 5.5 hrs by propidium iodide staining based confocal laser-scanning microscopic analysis; format: cell membranes
[21] = tested on: Pseudomonas aeruginosa; experiment: Antibacterial activity against Pseudomonas aeruginosa PAO1 infected in Caenorhabditis elegans assessed as increase in worm survival rate at 0.5 times MIC incubated for 60 hrs; format: functional, organism-based
[22] = tested on: Pseudomonas aeruginosa; experiment: Antibacterial activity against Pseudomonas aeruginosa PAO1 assessed as inhibition of bacterial growth by measuring minimum inhibitory concentration incubated for 18 to 20 hrs in presence of MH medium by broth microdilution assay; format: functional; settings: time 18-20 hrs
[23] = tested on: Cell membrane; experiment: Disruption of cell membrane integrity in Pseudomonas aeruginosa PAO1 assessed as increase in protein leakage at 0.5 to 4 MIC incubated for 6 hrs by BCA protein assay; format: cell membranes
[24] = tested on: Staphylococcus aureus; experiment: Antibacterial activity against Staphylococcus aureus ATCC 25923 assessed as inhibition of bacterial growth by measuring minimum inhibitory concentration incubated for 18 to 20 hrs in presence of M9 medium by broth microdilution assay; format: functional; settings: time 18-20 hrs
[25] = tested on: Pseudomonas aeruginosa; experiment: Antibacterial activity against Pseudomonas aeruginosa PAO1 assessed as inhibition of bacterial growth incubated for 18 to 20 hrs in presence of M9 medium by broth microdilution assay; format: functional, organism-based

`CC(C)=CCc1c(O)ccc(C(=O)/C=C/c2ccc(OCCCOCc3cc(=O)c(O)cn3C)cc2)c1O` was tested, and the Activity [1] was “Non-Toxic”, the Survival [2] was 55% and the MIC [3] was 16 µg/mL. The Activity [4] was “inactive”, the MIC [5] was 8 µg/mL and the IC50 [6] was > 128 µg/mL. For the same compound, the MIC [7] was 8 µg/mL, the Activity [8] was “Dose-Dependent Effect” and the MIC [9] was 32 µg/mL. For the same compound, the Activity [10] was “Active”, the MIC [11] was > 128 µg/mL and the Activity [12] was “Active”. The MIC [13] was > 128 µg/mL, the Activity [14] was “Toxic” and the Activity [15] was “inactive”. The MIC [16] was 8 µg/mL, the MIC [17] was > 128 µg/mL and the IC50 [18] was 16.8 µg/mL. For the same compound, the MIC [19] was 16 µg/mL, the Activity [20] was “Dose-Dependent Effect” and the Activity [21] was “inactive”. The MIC [22] was 32 µg/mL, the Activity [23] was “Active” and the MIC [24] was 32 µg/mL. For the same compound, the IC50 [25] was 1.45 µg/mL.
